Measured values: patent US20100316626A1, “METHODS FOR TREATMENT AND DIAGNOSIS OF PSYCHIATRIC DISORDERS” (THE GOVERNMENT OF THE UNITED STATES OF AMERICA AS …, priority 2006, published 2010)

Tests used:
FGF receptor = conditions: at μM concentrations; cited from earlier work
PDGF receptor = conditions: at μM concentrations; cited from earlier work
[1] = test system: A431, SK-BR-3 and MDA-MB-453 cells; conditions: cited from earlier work
[2] = test system: LTP at Schaffer collateral-CA1 synapses; test: LTP and LTP depotentiation at Schaffer collateral-CA1 synapses in acute hippocampal slices; type: cell-based, mouse; conditions: for block of the effects of NRG-1β on LTP by ErbB RTK inhibitors: inhibitor 10 μM applied 10 min prior to NRG-1, FIG. 3D
Procedure: (§1) Acute mouse hippocampal slice preparation: Hippocampal slices from 4 to 5 week old C57BL/6 mice were prepared in ice-cold artificial cerebrospinal fluid (ACSF) and cut on a 1000PLUS Vibratome (VIBRATOME, St. Louis, USA) to a thickness of ˜300 μm.
Electrophysiological recordings in mouse hippocampal slices: A single slice was transferred to a submerged recording chamber continuously perfused at a flow rate of 2 mL/min (30° C.) with recording ACSF (same as cutting ACSF minus the ascorbate, myo-inositol and pyruvate). Recordings were performed in 10 μM bicuculline (Tocris, USA) to block inhibitory activity. […] A borosilicate two-barrel stimulation electrode (World Precision Instruments, Sarasota, Fla.) with a silver wire (A-M Systems, Carlsberg, Wash.) was filled with oxygenated ACSF recording solution and placed in the stratum radiatum to stimulate the Schaffer collateral/commissural fibers at 0.05 Hz (0.1 msec, 20-40 μA) via a stimulus isolator (A365, World Precision Instruments, Sarasota, Fla.). Data were collected with a Multiclamp 700A amplifier (Axon Instrument, Foster city, CA). The recordings were digitized at a sampling rate of 10 kHz and filtered at 3 kHz. Baseline fEPSP slopes were set to 40-50% of maximum response. Baseline recordings of at least 10 min were obtained once stable basal transmission was observed. LTP was induced using a theta burst stimulation (TBS) protocol that consisted of 5 trains delivered at 0.2 Hz. […] To measure the AMPAR or the NMDAR components of evoked EPSCs, voltage-clamp recordings from CA1 pyramidal neurons were performed at holding potentials of −70 mV to measure the AMPAR component (10 EPSCs during 1 min) or at +40 mV to measure the NMDAR component. The AMPAR or NMDAR mediated EPSCs were measured 5 min prior to delivering the TBS, at approximately 20 min after inducing LTP (when the response stabilized), and at 10 and 40 min after commencing NRG-1β1 perfusion. In other experiments NMDAR EPSCs were recorded in potentiated slices prior to and after NRG-1 treatment at +40 mV (plus […] CNQX) to inhibit residual AMPAR currents. Paired-pulse facilitation was analyzed in whole-cell current-clamp recordings with inter-pulse intervals set to 50, 100, 150 and 200 msec.
Peptides corresponding to the splice variants of the EGF-like domains of NRG-1β1 and NRG-1α2 were dissolved in recording ACSF solution to a final concentration 0.1 or 1 nM. NRG was delivered for 10 min in external recording ACSF solution 20, 30 or 50 min following TBS. The ErbB receptor inhibitors PD158780 (10 μM) and PD168393 (10 μM) were diluted in ACSF solution and applied to the slices 10 min prior to NRG-1 addition to ensure diffusion into the cell and efficient receptor inhibition. […] Data were analyzed for significance using the Student's t-test. […]

[3] = test system: surface seGFP-GluR1 AMPA receptors; test: Live imaging of surface seGFP-GluR1 in transfected dissociated hippocampal neurons; type: cell-based, rat; conditions: PD158780 5 min before and during NRG-1; FIG. 6A
Procedure: Dissociated hippocampal cultures and chemLTP induction: Hippocampal neuronal cultures from E19 rat pups were prepared as reported previously. C. S. Herrmann et al., Clin Neurophysiol 116: 2719, 2005; A. Fisahn, et al., Nature 394: 186, 1998. Neurons were plated on 12 mm glass coverslips in 24 well plates at a density of 50,000 cells/well. ChemLTP was induced in cultures essential as described previously with minor modifications (Liao et al., 2001; Lu et al., 2001). Briefly, cells grown for 5 days in vitro (DIV5) were switched to medium containing 200 μM APV and maintained in Neurobasal media supplemented with B-27 (Invitrogen) until DIV18 to DIV22. […]
Live imaging in transfected hippocampal neurons of surface seGFP-tagged GluR1 AMPARs. […] Cells were perfused with […] glycine-containing medium used to induce chemLTP prior to capturing images and recorded for 4 min. […] Immediately after quenching with acidic MES buffer, cultures were switched back to 200 μM glycine in HBBSS (pH 7.4) for 2 min to recover the fluorescence. […] Images were detected with a cooled CCD camera (10 mW output, 12 bits, 1344×1024 pixels, Hamamatsu Orca ER) using 400 msec of exposure and 2×2 binning. Fluorescence was determined in 20-μm segments of neuronal processes that were at least 10 μm removed from the neuronal soma. […] Significance was evaluated by 1-way-ANOVA.

ErbB receptors [4] = conditions: A431, SK-BR-3 and MDA-MB-453 cells; read-out: IC50 for block of ErbB phosphorylation; cited from earlier work
ErbB receptors [5] = conditions: cited from earlier work
[6] = test system: basal synaptic transmission in hippocampal slices; test: Basal synaptic transmission in acute hippocampal slices (field recordings); type: cell-based, mouse; conditions: D2-selective inhibitors perfused in hippocampal slices; FIG. 11A
Procedure: as §1
Electrophysiological recordings in mouse hippocampal slices: A single slice was transferred to a submerged recording chamber continuously perfused at a flow rate of 2 mL/min (30° C.) with recording ACSF (same as cutting ACSF minus the ascorbate, myo-inositol and pyruvate). Recordings were performed in 10 μM bicuculline (Tocris, USA) to block inhibitory activity. […] The AMPAR or NMDAR mediated EPSCs were measured 5 min prior to delivering the TBS, at approximately 20 min after inducing LTP (when the response stabilized), and at 10 and 40 min after commencing NRG-1β1 perfusion. In other experiments NMDAR EPSCs were recorded in potentiated slices prior to and after NRG-1 treatment at +40 mV (plus […] CNQX) to inhibit residual AMPAR currents. Paired-pulse facilitation was analyzed in whole-cell current-clamp recordings with inter-pulse intervals set to 50, 100, 150 and 200 msec.
Peptides corresponding to the splice variants of the EGF-like domains of NRG-1β1 and NRG-1α2 were dissolved in recording ACSF solution to a final concentration 0.1 or 1 nM. […] Data were analyzed for significance using the Student's t-test. […]

For `CNc1cc2c(Nc3cccc(Br)c3)ncnc2cn1` [PD158780, 4-[(3-Bromophenyl)amino]-6-(methylamino)-pyrido[3,4-d]pyridimine], which “cross-reactivity with FGF receptor” value (FGF receptor) is on record?
Its value is “no cross-reactivity”.

What about the “cross-reactivity with PDGF receptor” value (PDGF receptor) of the same compound?
Its value is “no cross-reactivity”.

What about the “concentration that blocks proliferation” value [1] of the same compound?
The value was 0.1 to 1 µM.

What about the “block of the effects of NRG-1β on LTP by ErbB RTK inhibitors” value [2] of the same compound?
The value was “completely blocked”.

What about the “effect on LTP depotentiation elicited by TPS” value ([2]; two-pathway approach, FIG. 4C,D) of the same compound?
The value was “block LTP depotentiation”.

And the “block of NRG-1-induced internalization of seGFP-GluR1” value [3]?
Its value is “completely blocked”.

And the IC50 (ErbB receptors [4])?
The IC50 was 15 to 50 nM.

And the “dissociation rate and autophosphorylation inhibition of the receptors” value (ErbB receptors [5])?
Its value is “extremely slow (several hours)”.

What about the Kd (ErbB receptors [5]; reconstituted receptors in vitro, read-out: affinities (binds competitively with ATP in the pocket)) of the same compound?
Its Kd is 0.1 to 1 nM.

Which “effect on NRG-1-evoked LTP depotentiation” value ([2]; 50 nM, FIG. 11C) does the source give for `Clc1ccc(N2CCN(Cc3c[nH]c4ncccc34)CC2)cc1` [L745870] here?
Its value is “prevent NRG-1-evoked LTP depotentiation”.

And the “effect on basal synaptic transmission” value [6]?
The value was “no effect”.

Which “block of the effects of NRG-1β on LTP by ErbB RTK inhibitors” value [2] does the source give for `C=CC(=O)Nc1ccc2ncnc(Nc3cccc(Br)c3)c2c1` [PD168393, 4-[3(Bromophenyl)amino]-6-acrylamidoquinazoline] here?
Its value is “completely blocked”.
